Results on 7 compounds are retold here after patent US20050222167A1, “9-aminoacridine derivatives and process for the preparation thereof” (priority 2002, published 2005).

The subject of data set [1] is A549 (human non-small lung cell). The experiment in a line: SRB assay, in vitro antitumor effect against human tumor cell lines. It is filed as cell-based. Particulars: 48 hours. How it is done: (§1) Experimental 1: In vitro antitumor effect against human tumor cell lines.
(§2) A. Tumor cell lines: A549 (human non-small lung cell)
(§3) • SKOV-3 (human ovarian) • HCT-15 (human colon) • XF-498 (human CNS) • SKMEL-2 (human melanoma) B. Method: SRB Assay • a. Human solid tumor cell lines, A549(non-small lung cell), SKMEL-2(melanoma), HCT-15(colon), SKOV-3(ovarian) and XF-498(CNS) were cultured in 5% CO2 incubators using the RPMI 1640 media containing 10% FBS at 37° C., while with transfer-culturing successively once or twice per week. Cell cultures were dissolved in a solution of 0.25% trysin and 3 mmol CDTA PBS(−) to separate the cells sticked on the culture media. • b. 5 103˜2 104 cells were added into each well of 96-well plate and cultured in 5% CO2 incubator at 37° C. for 24 hours. • c. Each sample drug was dissolved in a little DMSO and diluted with the used medium to a prescribed concentration for experiment, while the final concentration of DMSO was adjusted below 0.5%. • d. Medium of each well cultured for 24 hours as above b. was removed by aspiration. Each 200 μl of drug samples prepared in c. was added into each well and the wells were cultured for 48 hours. Tz (time zero) plates were collected at the point of time drugs were added. • e. According to the SRB assay method, cell fixing with TCA, staining with 0.4% SRB solution, washing with 1% acetic acid and elution of dye with 10 mmol Tris solution were carried out on Tz plates and culture-ended plates, and then, OD values were measured at 520 nm. C. Calculation of Result • a. Time zero (Tz) value was determined with measuring the SRB protein value at the point of time drugs were added. • b. Control value (C) was determined with the OD value of an well untreated with drug. • c. Drug-treated test value (T) was determined with the OD value of drug-treated well. • d. Effects of drugs were estimated with growth stimulation, net growth inhibition and net killing calculated from Tz, C and T values. • e. If T≧Tz, cellular response function was calculated by 100×(T−Tz)/(C−Tz), and, if T<Tz, by 100 (T−Tz)/Tz.
In general terms: Sulforhodamine B stains cellular protein and so reports cell mass.

Data set [2] has as its system HCT-15 (human colon). Described as above. Format: cell-based. Conditions: HCT-15, SRB assay, 48 hours. How it is done:
as §1, §2, §3

Data set [3] has as its system SKMEL-2 (human melanoma). The description is as above. Conditions: SK-MEL-2, SRB assay, 48 hours. Format: cell-based. How it is done:
as §1, §2, §3

The subject of data set [4] is SKOV-3 (human ovarian). Described as above. It is filed as cell-based. Particulars: SK-OV-3, SRB assay, 48 hours. How it is done:
as §1, §2, §3

Data set [5] concerns XF-498 (human CNS). The data set is described as above. Format: cell-based. Particulars: XF-498, SRB assay, 48 hours. How it is done: as §1, §2, §3
Data set [6] deals with P388 (mouse lymphoid neoplasma cell). The experiment in a line: Dye exclusion assay, in vitro antitumor effects against animal leukemia cells. Particulars: P388, trypan blue dye exclusion, 48 hours, read-out: concentration showing 50% cell growth inhibition (IC50). It is filed as cell-based. An excerpt:
Experimental 2: In Vitro Antitumor Effects Against Animal Leukemia Cells. A. Material:
Tumor cell lines: P388 (mouse lymphoid neoplasma cell)
B. Method: Dye Exclusion Assay.

In data set [7] the test system is Leukemia P388 cells. The data set can be described thus: In vivo antitumor effects against mouse leukemia P388 cells. Particulars: abdominal cavity, days 1, 5, 9, BDF1 mice with P388. How it is done:
Experimental 3: In Vivo Antitumor Effects Against Mouse Leukemia P388 Cells A. Material of Experiment • BDF1 mice were used. B. Method of Experiment • 1) Leukemia P388 cells being transfer-cultured successively in DBA/2 mouse, were grafted into each mouse of a group comprising 8 mice of 6 week old BDF1 mouse with the dose of 1×10^6 cells/0.1 ml • 2) Sample drugs were dissolved in PBS or suspended in 0.5% tween 80, and then injected into abdominal cavity of mouse at each prescribed concentration on days 1, 5, 9, respectively. • 3) With observation everyday, survival times of tested mice were measured. Antitumor activities was deternimed in such a manner that the increasing ratio (T/C %) of average survival days of drug-treated groups compared with the control group was calculated using the mean survival times of each tested groups.

A short description of data set [8]: Acute toxicity test (LD50), Litchfield-Wilcoxon method. Particulars: male, mouse, in vivo; iv, ICR mice, observed 14 days. How it is done:
Experimental 4. Acute Toxicity Test (LD50): a) Method: Litchfield-Wilcoxon Method.
6-week-old ICR mice (male 30 2.0 g) were fed freely with solid feed and water at room temperature, […], and at humidity 60 5%. Sample drugs were injected into the abdominal cavities of mice. Each group comprised 6 mice. […] LD50 value was calculated by Litchfield-wilcoxon method.

≈ marks a conversion by molar mass, not a printed value. Where only a bound is given, the exact number is not on record here.

As for `N.N.[Cl][Pt][Cl]` [Cisplatin, cisplatin, reference compound], the ED50 in data set [1] came to 0.81 µg/mL; in data set [2] it was 3.03 µg/mL; in data set [3], 0.71 µg/mL; in data set [4] it was 0.71 µg/mL; in data set [5] it was 0.77 µg/mL.

As for `CCc1nc(OC)c(NC(=O)N2CCN(c3cc(C)cc(C)c3)CC2)cc1C(=O)NC(C)C(=O)Nc1cc(CO)cc(Nc2c3ccccc3nc3ccccc23)c1` (stereo not shown) [Example 2, 4-(3,5-dimethylphenyl)piperazine-1-carboxylic acid (5-{1-[3-(acridine-9-yl-amino)-5-hydroxymethylphenylcarbamoyl]-ethylcarbamoyl}-6-ethyl-2-methoxypyridine-3-yl)amide], the ED50 in data set [1] came to 0.12 µg/mL (≈ 0.154 µM); in data set [2], 0.19 µg/mL (≈ 0.243 µM); in data set [3] it was 0.01 µg/mL (≈ 0.0128 µM); in data set [4], 0.12 µg/mL (≈ 0.154 µM); in data set [5] it was 0.18 µg/mL (≈ 0.23 µM). Moreover, in data set [6], the IC50 was determined as 0.3 µg/mL (≈ 0.384 µM). Further, the results for the “MST” value in data set [7] (Dose 25 mg/kg), in data set [7] (Dose 50 mg/kg) and in data set [7] (Dose 100 mg/kg) were greater than 60.0 days, greater than 60.0 days and 22.0 days, respectively. Further, the “T/C (%)” value in data set [7] (Dose 25 mg/kg) is on record as greater than 545.5%; in data set [7] (Dose 50 mg/kg), greater than 545.5%; in data set [7] (Dose 100 mg/kg), 200.0%. In addition, in data set [8], the LD50 (commonly the dose expected to kill half of the subjects tested) at 14 days is 80 mg/kg.

Regarding `CCc1nc(OC)c(NC(=O)N2CCN(c3cc(OC)cc(OC)c3)CC2)cc1C(=O)NC(C)C(=O)Nc1cc(CO)cc(Nc2c3ccccc3nc3ccccc23)c1` (stereo not shown) [Example 3, 4-(3,5-dimethoxyphenyl)piperazine-1-carboxylic acid (5-{1-[3-(acridine-9-yl-amino)-5-hydroxymethylphenylcarbamoyl]-ethylcarbamoyl}-6-ethyl-2-methoxypyridine-3-yl)amide], the ED50 worked out at 0.12 µg/mL (≈ 0.148 µM) in data set [1]; 0.13 µg/mL (≈ 0.16 µM) in data set [2]; 0.03 µg/mL (≈ 0.0369 µM) in data set [3]; 0.19 µg/mL (≈ 0.234 µM) in data set [4]; 0.18 µg/mL (≈ 0.221 µM) in data set [5]. Besides, the IC50 in data set [6] is 1 µg/mL (≈ 1.23 µM). Besides, the “MST” value is recorded as 17.0 days in data set [7] (Dose 25 mg/kg), greater than 60.0 days in data set [7] (Dose 50 mg/kg) and 11.6 days in data set [7] (Dose 100 mg/kg). Moreover, the “T/C (%)” value is reported as 154.5% in data set [7] (Dose 25 mg/kg), greater than 545.5% in data set [7] (Dose 50 mg/kg) and 100.0% in data set [7] (Dose 100 mg/kg). The compound also showed a 50% lethal dose (LD50) at 14 days in data set [8] of 80 mg/kg.

For the compound `CCc1nc(OC)c(NC(=O)N2CCN(c3cc(F)cc(F)c3)CC2)cc1C(=O)NC(C)C(=O)Nc1cc(CO)cc(Nc2c3ccccc3nc3ccccc23)c1` (stereo not shown) [Example 4, 4-(3,5-difluorophenyl)piperazine-1-carboxylic acid (5-{1-[3-(acridine-9-yl-amino)-5-hydroxymethylphenylcarbamoyl]-ethylcarbamoyl}-6-ethyl-2-methoxypyridine-3-yl)amide], in data set [6], the IC50 was 0.9 µg/mL (≈ 1.14 µM).

For `CCCc1nc(OC)c(NC(=O)N2CCN(c3cc(OC)cc(OC)c3)CC2)cc1C(=O)NC(C)C(=O)Nc1cc(CO)cc(Nc2c3ccccc3nc3ccccc23)c1` (stereo not shown) [Example 9, 4-(3,5-dimethoxyphenyl)piperazine-1-carboxylic acid (5-{1-[3-(acridine-9-yl-amino)-5-hydroxymethylphenylcarbamoyl]-ethylcarbamoyl}-2-methoxy-6-propylpyridine-3-yl)-amide], the ED50 in data set [1] turned out to be 0.24 µg/mL (≈ 0.29 µM); in data set [2], 0.15 µg/mL (≈ 0.181 µM); in data set [3], 0.15 µg/mL (≈ 0.181 µM); in data set [4] it was 0.19 µg/mL (≈ 0.23 µM); in data set [5], 0.15 µg/mL (≈ 0.181 µM). In addition, the IC50 in data set [6] is 0.4 µg/mL (≈ 0.484 µM).

For the compound `CCc1nc(OC)c(NC(=O)N2CCN(c3cc(C)cc(C)c3)CC2)cc1C(=O)NC(C)C(=O)Nc1cc(CO)cc(Nc2c3ccccc3nc3c(C)c(C)ccc23)c1` (stereo not shown) [Example 16, 4-(3,5-dimethylphenyl)piperazine-1-carboxylic acid (5-{1-[3-(3,4-dimethylacridine-9-yl-amino)-5-hydroxymethylphenylcarbamoyl]-ethylcarbamoyl}-6-ethyl-2-methoxypyridine-3-yl)amide], the ED50 in data set [1] was determined as 0.08 µg/mL (≈ 0.0989 µM); in data set [2], 0.07 µg/mL (≈ 0.0865 µM); in data set [3] it was 0.02 µg/mL (≈ 0.0247 µM); in data set [4] it was 0.14 µg/mL (≈ 0.173 µM); in data set [5], 0.09 µg/mL (≈ 0.111 µM). Also, the IC50 in data set [6] was 0.3 µg/mL (≈ 0.371 µM).

As for `CCc1nc(OC)c(NC(=O)N2CCN(c3cc(C)cc(C)c3)CC2)cc1C(=O)Nc1cc(CO)cc(Nc2c3ccccc3nc3ccccc23)c1` [Example 19, 4-(3,5-dimethylphenyl)-piperazine-1-carboxylic acid{5-[3-(acridine-9-yl-amino)-5-hydroxymethylphenylcarbamoyl]-6-ethyl-2-methoxy-pyridine-3-yl}amide], the ED50 in data set [1] stood at 0.21 µg/mL (≈ 0.296 µM); in data set [2] it was 0.27 µg/mL (≈ 0.38 µM); in data set [3], 0.18 µg/mL (≈ 0.254 µM); in data set [4], 0.17 µg/mL (≈ 0.239 µM); in data set [5] it was 0.38 µg/mL (≈ 0.535 µM).
